We go through 15 compounds from patent publication US20200390899A1, “AMINOBENZAZEPINE COMPOUNDS, IMMUNOCONJUGATES, AND USES THEREOF” (BOLT BIOTHERAPEUTICS, INC., priority 2019, published 2020).

The structures appear in SMILES notation. Read-outs that look alike come from different tables or passages of the source.

The target of one experiment is T1, human TLR7 (Homo sapiens, UniProt Q9NYK1).
T1 construct: host or cells: HEK293 reporter cells
T1 sequence (Q9NYK1 27-1049): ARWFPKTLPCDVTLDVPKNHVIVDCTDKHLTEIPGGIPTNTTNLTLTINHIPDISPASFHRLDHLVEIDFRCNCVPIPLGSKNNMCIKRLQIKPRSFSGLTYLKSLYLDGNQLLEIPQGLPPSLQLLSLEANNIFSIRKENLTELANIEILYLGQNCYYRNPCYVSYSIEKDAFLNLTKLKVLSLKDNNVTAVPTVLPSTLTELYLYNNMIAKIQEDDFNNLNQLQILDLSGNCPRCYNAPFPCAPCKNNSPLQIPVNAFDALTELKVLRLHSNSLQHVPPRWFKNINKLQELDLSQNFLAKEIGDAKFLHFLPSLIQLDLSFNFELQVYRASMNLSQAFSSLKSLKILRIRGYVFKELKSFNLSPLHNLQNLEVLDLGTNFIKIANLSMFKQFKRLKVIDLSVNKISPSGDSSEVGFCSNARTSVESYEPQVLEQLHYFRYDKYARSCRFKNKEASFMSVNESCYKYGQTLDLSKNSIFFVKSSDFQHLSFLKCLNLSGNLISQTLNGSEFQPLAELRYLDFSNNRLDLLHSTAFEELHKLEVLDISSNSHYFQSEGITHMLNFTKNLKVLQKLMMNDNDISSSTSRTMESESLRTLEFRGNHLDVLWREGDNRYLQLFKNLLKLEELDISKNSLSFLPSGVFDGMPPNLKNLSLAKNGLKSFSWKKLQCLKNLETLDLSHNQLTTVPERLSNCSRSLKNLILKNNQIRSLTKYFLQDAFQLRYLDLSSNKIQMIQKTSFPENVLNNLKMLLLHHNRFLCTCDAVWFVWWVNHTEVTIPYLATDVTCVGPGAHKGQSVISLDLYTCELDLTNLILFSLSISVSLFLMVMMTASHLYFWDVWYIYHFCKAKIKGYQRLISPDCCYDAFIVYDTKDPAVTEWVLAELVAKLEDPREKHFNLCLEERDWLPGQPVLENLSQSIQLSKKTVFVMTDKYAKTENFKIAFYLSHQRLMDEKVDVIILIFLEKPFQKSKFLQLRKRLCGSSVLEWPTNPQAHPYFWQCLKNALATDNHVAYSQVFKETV
Kind of experiment: HEK293 NFKB reporter assay, human TLR7. The class given is cell-based. As to the method: (§1) Each compound was synthesized and purified by the methods in the Examples provided herein, characterized by mass spectrometry, and shown to have the mass indicated. Activity against HEK293 NFKB reporter cells expressing human TLR7 or human TLR8 was measured according to Example 68.
(§2) HEK293 reporter cells expressing human TLR7 or human TLR8 were purchased from Invivogen and vendor protocols were followed for cellular propagation and experimentation. Briefly, cells were grown to 80-85% confluence at 5% CO2 in DMEM supplemented with 10% FBS, Zeocin, and Blasticidin. Cells were then seeded in 96-well flat plates at 4×10^4cells/well with substrate containing HEK detection medium and immunostimulatory molecules. Activity was measured using a plate reader at 620-655 nm wavelength.
For orientation: A reporter such as luciferase makes a cellular process visible.

The next experiment deals with T2, human TLR8 (Homo sapiens, UniProt Q9NR97).
T2 construct: host or cells: HEK293 reporter cells
T2 sequence (Q9NR97 27-1041): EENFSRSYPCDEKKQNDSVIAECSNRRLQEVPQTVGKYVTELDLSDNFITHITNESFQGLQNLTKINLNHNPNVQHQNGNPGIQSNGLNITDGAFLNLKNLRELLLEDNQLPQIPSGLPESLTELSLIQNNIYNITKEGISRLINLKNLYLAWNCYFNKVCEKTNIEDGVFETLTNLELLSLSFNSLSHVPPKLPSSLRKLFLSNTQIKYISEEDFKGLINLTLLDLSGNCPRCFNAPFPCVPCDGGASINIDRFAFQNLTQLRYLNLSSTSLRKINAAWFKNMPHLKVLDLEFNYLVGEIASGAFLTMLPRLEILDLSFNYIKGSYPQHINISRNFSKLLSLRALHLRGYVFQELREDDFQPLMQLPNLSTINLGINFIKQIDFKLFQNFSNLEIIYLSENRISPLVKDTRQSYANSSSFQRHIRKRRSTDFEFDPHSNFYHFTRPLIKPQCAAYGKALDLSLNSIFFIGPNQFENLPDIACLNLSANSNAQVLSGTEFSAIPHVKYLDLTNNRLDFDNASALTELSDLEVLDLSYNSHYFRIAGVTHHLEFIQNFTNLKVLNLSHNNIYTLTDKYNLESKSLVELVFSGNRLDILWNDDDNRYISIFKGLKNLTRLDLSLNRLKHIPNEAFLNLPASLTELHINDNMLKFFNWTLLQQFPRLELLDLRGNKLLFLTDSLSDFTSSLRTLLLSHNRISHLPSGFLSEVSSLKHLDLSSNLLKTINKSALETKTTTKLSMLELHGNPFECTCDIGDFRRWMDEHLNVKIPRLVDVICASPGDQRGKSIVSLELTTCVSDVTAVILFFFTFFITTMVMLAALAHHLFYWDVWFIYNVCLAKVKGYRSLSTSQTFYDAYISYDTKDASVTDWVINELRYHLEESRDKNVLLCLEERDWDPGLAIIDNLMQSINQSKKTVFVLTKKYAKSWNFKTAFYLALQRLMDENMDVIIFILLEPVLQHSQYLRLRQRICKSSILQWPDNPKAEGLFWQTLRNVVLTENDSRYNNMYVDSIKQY
Kind of experiment: HEK293 NFKB reporter assay, human TLR8. The class given is cell-based. As to the method:
as §1, §2

Setting [1] is: Table 1a, HEK293 reporter cells expressing human TLR7, read-out: HEK293 hTLR7 EC50.
[2] abbreviates: Table 1a, HEK293 reporter cells expressing human TLR8, read-out: HEK293 hTLR8 EC50.
Where [3] appears, read: Table 1b, HEK293 reporter cells expressing human TLR7, read-out: HEK293 hTLR7 EC50.
[4] abbreviates: Table 1b, HEK293 reporter cells expressing human TLR8, read-out: HEK293 hTLR8 EC50.

`CCCN(CCCNC(=O)Nc1cccc(C#N)c1)C(=O)C1=Cc2ccc(-c3cccc(S(=O)(=O)N4CC(CO)C4)c3)cc2N=C(N)C1` [Bz-12, 2-amino-N-[3-[(3-cyanophenyl)carbamoylamino]propyl]-8-[3-[3-(hydroxymethyl)azetidin-1-yl]sulfonylphenyl]-N-propyl-3H-1-benzazepine-4-carboxamide]: the values for the concentration giving a half-maximal response (EC50) at human TLR7 (setting [1]) and at human TLR8 (setting [2]) were 2490 nM and 2380 nM, respectively.

Consider `CCCN(CCCNC(=O)OCC)C(=O)C1=Cc2ccc(-c3cccc(S(=O)(=O)N4CC(CO)C4)c3)cc2N=C(N)C1` [Bz-13, ethyl N-[3-[[2-amino-8-[3-[3-(hydroxymethyl)azetidin-1-yl]sulfonylphenyl]-3H-1-benzazepine-4-carbonyl]-propyl-amino]propyl]carbamate], for which the concentration giving a half-maximal response (EC50) (usually the concentration needed to bring the measured effect to its halfway point) on human TLR7 turned out to be 1370 nM; on human TLR8 it was 134 nM.

`CCCN(CCC)C(=O)C1=Cc2c(CCCCN)cc(-c3cccc(S(=O)(=O)N4CC(CO)C4)c3)cc2N=C(N)C1` [Bz-14, 2-Amino-6-(4-aminobutyl)-8-(3-((3-(hydroxymethyl)azetidin-1-yl)sulfonyl)phenyl)-N,N-dipropyl-3H-benzo[b]azepine-4-carboxamide]: the 50% effective concentration (EC50) on human TLR7 (setting [1]) is over 9000 nM; at human TLR8 (setting [2]), 1700 nM.

For `CCCN(CCC)C(=O)C1=Cc2ccc(-c3cccc(S(=O)(=O)N4CC(CN)C4)c3)cc2N=C(N)C1` [Bz-15, 2-amino-8-[3-[3-(aminomethyl)azetidin-1-yl]sulfonylphenyl]-N,N-dipropyl-3H-1-benzazepine-4-carboxamide], the half-maximal effective concentration (EC50) at human TLR7 (setting [1]) was over 9000 nM; at human TLR8 (setting [2]) it was 103 nM.

Regarding `CCCN(CCCNC(=O)OC(C)(C)C)C(=O)C1=Cc2ccc(C(=O)Nc3ccc(N4CCC(C(=O)NCCNC(C)=O)CC4)nc3)cc2N=C(N)C1` [Bz-16, tert-butyl (3-(8-((6-(4-((2-acetamidoethyl)carbamoyl)piperidin-1-yl)pyridin-3-yl)carbamoyl)-2-amino-N-propyl-3H-benzo[b]azepine-4-carboxamido)propyl)carbamate], the EC50 at human TLR7 (setting [1]) is over 9000 nM; at human TLR8 (setting [2]) it was 1050 nM.

Turning to `CCCN(CCCN)C(=O)C1=Cc2ccc(-c3cccc(S(=O)(=O)N4CC(CO)C4)c3)cc2N=C(N)C1` [Bz-17, 2-amino-N-(3-aminopropyl)-8-[3-[3-(hydroxymethyl)azetidin-1-yl]sulfonylphenyl]-N-propyl-3H-1-benzazepine-4-carboxamide], the EC50 at human TLR7 (setting [3]) and at human TLR8 (setting [4]) was over 9000 nM throughout.

For the compound `CCCN(CCCOCCCN)C(=O)C1=Cc2ccc(-c3cccc(S(=O)(=O)N4CC(CO)C4)c3)cc2N=C(N)C1` [Bz-18, 2-amino-N-(3-(3-aminopropoxy)propyl)-8-(3-((3-(hydroxymethyl)azetidin-1-yl)sulfonyl)phenyl)-N-propyl-3H-benzo[b]azepine-4-carboxamide], the EC50 on human TLR7 (setting [3]) is 1990 nM; at human TLR8 (setting [4]), 3400 nM.

Regarding `CCCN(CCCNC(=O)CC(C)(C)C)C(=O)C1=Cc2ccc(-c3cccc(S(=O)(=O)N4CC(CO)C4)c3)cc2N=C(N)C1` [Bz-19, 2-amino-N-(3-(3,3-dimethylbutanamido)propyl)-8-(3-((3-(hydroxymethyl)azetidin-1-yl)sulfonyl)phenyl)-N-propyl-3H-benzo[b]azepine-4-carboxamide], the EC50 on human TLR7 (setting [3]) was 1070 nM; on human TLR8 (setting [4]) it was 3170 nM.

Regarding `CCCN(CCCCCN)C(=O)C1=Cc2ccc(-c3cccc(S(=O)(=O)N4CC(CO)C4)c3)cc2N=C(N)C1` [Bz-20, 2-amino-N-(5-aminopentyl)-8-(3-((3-(hydroxymethyl)azetidin-1-yl)sulfonyl)phenyl)-N-propyl-3H-benzo[b]azepine-4-carboxamide], the EC50 at human TLR7 (setting [3]) and on human TLR8 (setting [4]) was over 9000 nM in each case.

Take `CCCN(CCCOCCOCCN)C(=O)C1=Cc2ccc(-c3cccc(S(=O)(=O)N4CC(CO)C4)c3)cc2N=C(N)C1` [Bz-21, 2-amino-N-(3-(2-(2-aminoethoxy)ethoxy)propyl)-8-(3-((3-(hydroxymethyl)azetidin-1-yl)sulfonyl)phenyl)-N-propyl-3H-benzo[b]azepine-4-carboxamide]: the EC50 at human TLR7 (setting [3]) and on human TLR8 (setting [4]) was over 9000 nM each time.

In the case of `CCCN(C/C=C/CN)C(=O)C1=Cc2ccc(-c3cccc(S(=O)(=O)N4CC(CO)C4)c3)cc2N=C(N)C1` [Bz-22, 2-amino-N-[(E)-4-aminobut-2-enyl]-8-[3-[3-(hydroxymethyl)azetidin-1-yl]sulfonylphenyl]-N-propyl-3H-1-benzazepine-4-carboxamide], the EC50 on human TLR7 (setting [3]) and on human TLR8 (setting [4]) was over 9000 nM in each case.

On to `CCCN(CCCNc1ncccn1)C(=O)C1=Cc2ccc(-c3cccc(S(=O)(=O)N4CC(CO)C4)c3)cc2N=C(N)C1` [Bz-23, 2-amino-8-[3-[3-(hydroxymethyl)azetidin-1-yl]sulfonylphenyl]-N-propyl-N-[3-(pyrimidin-2-ylamino)propyl]-3H-1-benzazepine-4-carboxamide], for which the EC50 on human TLR7 (setting [3]) worked out at 2430 nM; on human TLR8 (setting [4]) it was 1160 nM.

Turning to `CCCN(CCCCN)C(=O)C1=Cc2ccc(-c3cccc(S(=O)(=O)N4CC(CO)C4)c3)cc2N=C(N)C1` [Bz-24, 2-amino-N-(4-aminobutyl)-8-[3-[3-(hydroxymethyl)azetidin-1-yl]sulfonylphenyl]-N-propyl-3H-1-benzazepine-4-carboxamide], the EC50 at human TLR7 (setting [3]) and at human TLR8 (setting [4]) was over 9000 nM in each case.

As to `CCCN(CCc1ccc(OC)cc1)C(=O)C1=Cc2ccc(-c3cccc(S(=O)(=O)N4CC(CO)C4)c3)cc2N=C(N)C1` [Bz-25, 2-amino-8-[3-[3-(hydroxymethyl)azetidin-1-yl]sulfonylphenyl]-N-[2-(4-methoxyphenyl)ethyl]-N-propyl-3H-1-benzazepine-4-carboxamide], the values for the EC50 at human TLR7 (setting [3]) and at human TLR8 (setting [4]) were over 9000 nM and 1400 nM, respectively.

With `CCCN(CC#CCNC(=O)OC(C)(C)C)C(=O)C1=Cc2ccc(-c3cccc(S(=O)(=O)N4CC(CO)C4)c3)cc2N=C(N)C1` [Bz-26, tert-butyl N-[4-[[2-amino-8-[3-[3-(hydroxymethyl)azetidin-1-yl]sulfonylphenyl]-3H-1-benzazepine-4-carbonyl]-propyl-amino]but-2-ynyl]carbamate], the EC50 on human TLR7 (setting [3]) is over 9000 nM; on human TLR8 (setting [4]) it was 318 nM.
